PMC5444859 (PLoS Pathogens, 2017)

Molecular target: CASV L-Cterm (CAS virus, UniProt J7HBG8)
Type: binding

C[n+]1cn([C@@H]2O[C@H](COP(=O)(O)OP(=O)(O)OP(=O)(O)O)[C@@H](O)[C@H]2O)c2nc(N)[nH]c(=O)c21 [m^7GTP]
X-ray crystallography, crystal soaking: the cap-analogue was bound to F1839 at the periphery of the β-sheet
